Measured values: ChEMBL document CHEMBL6182876, “Design, synthesis and preliminary structure-activity relationship of 2-iminothiazolidine-4-one derivatives against Schistosoma japonicum in vitro and in vivo” (Eur J Med Chem, 2025)

Legend:
Schistosoma japonicum [1] = experiment: Anti-schistosomal activity against adult Schistosoma japonicum assessed as worm mortality at 100 uM measured at 4 hrs relative to control; type: functional
Schistosoma japonicum [2] = experiment: Anti-schistosomal activity against adult Schistosoma japonicum assessed as worm mortality at 100 uM measured at 8 hrs relative to control; type: functional
Schistosoma japonicum [3] = experiment: Anti-schistosomal activity against adult Schistosoma japonicum assessed as worm mortality at 100 uM measured at 12 hrs relative to control; type: functional
Schistosoma japonicum [4] = experiment: Anti-schistosomal activity against adult Schistosoma japonicum assessed as worm mortality at 100 uM measured at 24 hrs relative to control; type: functional
Schistosoma japonicum [5] = experiment: Anti-schistosomal activity against adult Schistosoma japonicum assessed as worm mortality at 100 uM measured at 48 hrs relative to control; type: functional
Schistosoma japonicum [6] = experiment: Anti-schistosomal activity against adult Schistosoma japonicum assessed as worm mortality at 100 uM measured at 72 hrs relative to control; type: functional
Schistosoma japonicum [7] = experiment: Anti-schistosomal activity against adult Schistosoma japonicum measured at 72 hrs; type: functional, organism-based

Row | SMILES | mortality at 100 µM (Schistosoma japonicum [1]) | mortality at 100 µM (Schistosoma japonicum [2]) | mortality at 100 µM (Schistosoma japonicum [3]) | mortality at 100 µM (Schistosoma japonicum [4]) | mortality at 100 µM (Schistosoma japonicum [5]) | mortality at 100 µM (Schistosoma japonicum [6]) | IC50 (Schistosoma japonicum [7])
1 | CCOC(=O)/C=C1\S/C(=N\C)N(CCCN2CCN(C)CC2)C1=O | 0% | 0% | 0% | 0% | 0% | 0% | > 100 µM
2 | CCOC(=O)/C=C1\S/C(=N\c2ccc(Br)cc2)N(CCCN2CCN(C)CC2)C1=O | 0% | 30% | 60% | 100% | 100% | 100% | 35.4 µM
3 | CCOC(=O)/C=C1\S/C(=N\c2ccccc2C(F)(F)F)N(CCCN2CCN(C)CC2)C1=O | 0% | 40% | 100% | 100% | 100% | 100% | 33.2 µM
4 | CCOC(=O)/C=C1\S/C(=N\c2ccccc2)N(CCN2CCC(Cc3ccccc3)CC2)C1=O | 0% | 0% | 0% | 0% | 20% | 70% | 91.3 µM
5 | CCOC(=O)/C=C1\S/C(=N\c2ccccc2)N(CCCN2CCCC2)C1=O | 0% | 0% | 0% | 20% | 30% | 100% | 77.9 µM
